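Five concentrations, 48 hours, 96-well plates. The concentration for 50% growth inhibition is given as GI50.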 The source made the active and inactive calls. Rule as the data show it: active = GI50 up to about 1.1 µM and inactive = higher.
Experiments:
Assay in all cases: growth of human tumour cells (NCI), 48 h
M14 = tested on: M14
RXF 393 = tested on: RXF 393
IGROV-1 = tested on: IGROV-1
ACHN = tested on: ACHN
OVCAR-4 = tested on: OVCAR-4
786-0 = tested on: 786-0
BT-549 = tested on: BT-549
SNB-75 = tested on: SNB-75
SF-268 = tested on: SF-268
NCI-H460 = tested on: NCI-H460
MCF7 = tested on: MCF7
Malme-3M = tested on: Malme-3M
UACC-257 = tested on: UACC-257
PC-3 = tested on: PC-3
SW-620 = tested on: SW-620
MDA-N = tested on: MDA-N
SF-539 = tested on: SF-539
SK-MEL-28 = tested on: SK-MEL-28
TK-10 = tested on: TK-10
HOP-62 = tested on: HOP-62

SMILES	GI50 (M14)	GI50 (RXF 393)	GI50 (IGROV-1)	GI50 (ACHN)	GI50 (OVCAR-4)	GI50 (786-0)	GI50 (BT-549)	GI50 (SNB-75)	GI50 (SF-268)	GI50 (NCI-H460)	GI50 (MCF7)	GI50 (Malme-3M)	GI50 (UACC-257)	GI50 (PC-3)	GI50 (SW-620)	GI50 (MDA-N)	GI50 (SF-539)	GI50 (SK-MEL-28)	GI50 (TK-10)	GI50 (HOP-62)
CCOC(=O)C(NC(=O)CC(C)C)(N1CCN(c2cc3c(cc2F)c(=O)c(C(=O)O)cn3C2CC2)CC1)C(F)(F)F (stereo not given)	20 µM (inactive)	17.2 µM (inactive)	12.6 µM (inactive)	12.5 µM (inactive)	20.8 µM (inactive)	29.5 µM (inactive)	16.3 µM (inactive)	21.4 µM (inactive)	11.1 µM (inactive)	28.1 µM (inactive)	15.6 µM (inactive)	17.6 µM (inactive)	16.7 µM (inactive)	15 µM (inactive)	19.6 µM (inactive)	20.3 µM (inactive)	17.5 µM (inactive)	20.9 µM (inactive)	10.3 µM (inactive)	36.6 µM (inactive)
Nc1ccccc1SC(C[N+](=O)[O-])c1ccc2c(c1)OCO2 (stereo not given)	1.62 µM (inactive)	1.8 µM (inactive)	1.51 µM (inactive)	6.46 µM (inactive)	11.6 µM (inactive)	1.66 µM (inactive)	4.22 µM (inactive)	2.34 µM (inactive)	7.55 µM (inactive)	2.12 µM (inactive)	2.99 µM (inactive)	15.7 µM (inactive)	1.81 µM (inactive)	7.66 µM (inactive)	2.31 µM (inactive)	1.75 µM (inactive)	2.24 µM (inactive)	3.4 µM (inactive)	2.63 µM (inactive)	2.12 µM (inactive)
CC1=C(C(=O)OCCc2ccc([N+](=O)[O-])cc2)C(c2ccccc2[N+](=O)[O-])C(C(=O)OC(C)C)=C(C)N1 (stereo not given)	4.05 µM (inactive)	3.22 µM (inactive)	7.05 µM (inactive)	3.4 µM (inactive)	37.9 µM (inactive)	3.08 µM (inactive)	2.4 µM (inactive)	4.24 µM (inactive)	5.55 µM (inactive)	2.6 µM (inactive)	3.78 µM (inactive)	7.19 µM (inactive)	4.04 µM (inactive)	1.49 µM (inactive)	6.89 µM (inactive)	4.51 µM (inactive)	4.15 µM (inactive)	7.57 µM (inactive)	5.87 µM (inactive)	8.67 µM (inactive)
N=C(N)SCCCN	3.52 µM (inactive)	4.29 µM (inactive)	3.83 µM (inactive)	4.29 µM (inactive)	6.5 µM (inactive)	4.71 µM (inactive)	4.06 µM (inactive)	33.7 µM (inactive)	5.3 µM (inactive)	4.13 µM (inactive)	5.5 µM (inactive)	8.77 µM (inactive)	5.4 µM (inactive)	15.6 µM (inactive)	26.4 µM (inactive)	3.95 µM (inactive)	5.81 µM (inactive)	28.2 µM (inactive)	3.65 µM (inactive)	12.1 µM (inactive)
O=C1O/C(=C(\Br)c2ccc([N+](=O)[O-])cc2)c2ccccc21	> 100 µM (inactive)	> 100 µM (inactive)	> 100 µM (inactive)	> 100 µM (inactive)	> 100 µM (inactive)	> 54.6 µM (inactive)	> 79.8 µM (inactive)	> 78.3 µM (inactive)	> 74 µM (inactive)	> 100 µM (inactive)	48.5 µM (inactive)	> 49.9 µM (inactive)	> 74.8 µM (inactive)	> 100 µM (inactive)	> 64.3 µM (inactive)	> 66.2 µM (inactive)	> 100 µM (inactive)	> 100 µM (inactive)	> 100 µM (inactive)	> 80.9 µM (inactive)
C=CCC(C(=O)O)c1ccccc1 (stereo not given)	> 100 µM (inactive)	> 100 µM (inactive)	> 100 µM (inactive)	> 100 µM (inactive)	> 100 µM (inactive)	> 100 µM (inactive)	> 100 µM (inactive)	> 100 µM (inactive)	> 100 µM (inactive)	> 100 µM (inactive)	> 100 µM (inactive)	> 100 µM (inactive)	> 100 µM (inactive)	> 100 µM (inactive)	> 100 µM (inactive)	> 100 µM (inactive)	> 100 µM (inactive)	> 100 µM (inactive)	> 100 µM (inactive)	> 100 µM (inactive)
N#Cc1nc(/C=C/c2nc(C#N)c(N)o2)oc1N	> 10 µM (inactive)	> 10 µM (inactive)	> 10 µM (inactive)	> 10 µM (inactive)	> 10 µM (inactive)	> 10 µM (inactive)	> 10 µM (inactive)	> 10 µM (inactive)	> 10 µM (inactive)	> 10 µM (inactive)	> 10 µM (inactive)	> 10 µM (inactive)	> 10 µM (inactive)	> 10 µM (inactive)	> 10 µM (inactive)	> 10 µM (inactive)	> 10 µM (inactive)	> 10 µM (inactive)	> 10 µM (inactive)	> 10 µM (inactive)
O=C(CC(=O)Nc1ccccc1)NNC(Sc1ccccc1)c1cc(/N=N/c2ccc(Br)cc2)ccc1O (stereo not given)	0.973 µM (active)	2.37 µM (inactive)	5.07 µM (inactive)	2.47 µM (inactive)	1.56 µM (inactive)	0.802 µM (active)	5.12 µM (inactive)	3.15 µM (inactive)	0.587 µM (active)	0.773 µM (active)	1.78 µM (inactive)	4.26 µM (inactive)	4.29 µM (inactive)	1.45 µM (inactive)	0.931 µM (active)	2.41 µM (inactive)	1.66 µM (inactive)	2.92 µM (inactive)	1.45 µM (inactive)	3.08 µM (inactive)
Cc1cccc(C)c1NC(=O)C(C#N)C1=C(Cl)C(=O)c2ccccc2C1=O (stereo not given)	10.1 µM (inactive)	> 32.8 µM (inactive)	17 µM (inactive)	15.2 µM (inactive)	16 µM (inactive)	22 µM (inactive)	14.6 µM (inactive)	15.7 µM (inactive)	15.5 µM (inactive)	22.1 µM (inactive)	20 µM (inactive)	15.2 µM (inactive)	13.9 µM (inactive)	13.8 µM (inactive)	11.9 µM (inactive)	14.4 µM (inactive)	21.4 µM (inactive)	20.2 µM (inactive)	19.5 µM (inactive)	18 µM (inactive)
O=C1/C(=C\c2ccccc2)C(NC2CCCCC2)c2ccccc21 (stereo not given)	1.54 µM (inactive)	1.56 µM (inactive)	2.99 µM (inactive)	0.923 µM (active)	1.79 µM (inactive)	0.828 µM (active)	2.36 µM (inactive)	2.17 µM (inactive)	3.46 µM (inactive)	2.71 µM (inactive)	1.37 µM (inactive)	1.46 µM (inactive)	1.29 µM (inactive)	1.78 µM (inactive)	0.444 µM (active)	1.43 µM (inactive)	1 µM (active)	2.54 µM (inactive)	1.29 µM (inactive)	2.46 µM (inactive)
CCOC(=O)C1=C(C)NC(C)=C(C(=O)OCCNC(=O)c2ccc(N=[N+]=[N-])cc2)C1c1ccccc1C(F)(F)F (stereo not given) [AZIDOPINE]	9.98 µM (inactive)	9.57 µM (inactive)	18.7 µM (inactive)	7.64 µM (inactive)	12.2 µM (inactive)	13.3 µM (inactive)	13.9 µM (inactive)	> 10 µM (inactive)	10.3 µM (inactive)	9.12 µM (inactive)	6.43 µM (inactive)	14 µM (inactive)	11.5 µM (inactive)	3.28 µM (inactive)	15.3 µM (inactive)	10.2 µM (inactive)	19.1 µM (inactive)	13.4 µM (inactive)	8.22 µM (inactive)	> 21.5 µM (inactive)
COc1c(O)cc2c(c1O)C(=O)C(Cc1ccc(O)cc1)CO2 (stereo not given)	> 100 µM (inactive)	> 100 µM (inactive)	> 100 µM (inactive)	> 100 µM (inactive)	40.3 µM (inactive)	> 100 µM (inactive)	46.7 µM (inactive)	5.79 µM (inactive)	> 100 µM (inactive)	44.6 µM (inactive)	> 100 µM (inactive)	> 100 µM (inactive)	> 100 µM (inactive)	41.7 µM (inactive)	> 100 µM (inactive)	32.1 µM (inactive)	56.4 µM (inactive)	59.7 µM (inactive)	> 100 µM (inactive)	94.6 µM (inactive)
CC(=O)O[C@H]1CC[C@@]2(C)C(=CC[C@H]3[C@@H]4C[C@H](N5CCOCC5)[C@H](OC(C)=O)[C@@]4(C)CC[C@@H]32)C1	> 100 µM (inactive)	42.4 µM (inactive)	> 100 µM (inactive)	> 100 µM (inactive)	> 100 µM (inactive)	> 100 µM (inactive)	> 100 µM (inactive)	71.6 µM (inactive)	> 100 µM (inactive)	> 100 µM (inactive)	> 100 µM (inactive)	> 100 µM (inactive)	> 100 µM (inactive)	> 100 µM (inactive)	> 100 µM (inactive)	> 100 µM (inactive)	78 µM (inactive)	> 100 µM (inactive)	> 100 µM (inactive)	> 100 µM (inactive)
CNC/C(Cl)=N/S(=O)(=O)c1ccc(C)cc1	10.3 µM (inactive)	2.2 µM (inactive)	17.2 µM (inactive)	15.8 µM (inactive)	10 µM (inactive)	9.93 µM (inactive)	16.3 µM (inactive)	5.18 µM (inactive)	19.5 µM (inactive)	8.17 µM (inactive)	7.94 µM (inactive)	9.66 µM (inactive)	9.27 µM (inactive)	9.59 µM (inactive)	9.16 µM (inactive)	6.85 µM (inactive)	9.71 µM (inactive)	31.6 µM (inactive)	12.7 µM (inactive)	14 µM (inactive)
